Assay results published in patent publication US8557770B2, “Method of preventing or reducing scarring of human skin” (Pharmecosse Ltd., priority 2000, dated 2013).

Legend:
[1] = tested on: fibroblast cultures from hypertrophic scars (HTS); experiment: In vitro myofibroblast differentiation assay (α-smooth muscle actin staining), hypertrophic scar fibroblasts; format: cell-based, human
Source text: (§1) One of the most important cell types in both normal and pathological scar formation is the myofibroblast. These cells, which differentiate from the unwounded tissue cell type (fibroblasts), are responsible for laying down scar tissue. Indeed myofibroblasts remain present in hypertrophic scars up to four years after the original wounding event. An in vitro assay was accordingly developed to identify actives which prevent or reduce myofibroblast formation and thus identify actives which are effective in reducing and/or preventing scar tissue formation.
(§2) Fibroblast cultures were initiated from normal skin, normal scars, hypertrophic scars (HTS) and burns scars.
(§3) Each culture was split into seven parts (A to G) and grown in the following different growth media:
(§4) (A) was grown in normal growth medium (hereinafter referred to as NGM) which consisted of Dulbecco's modified Eagles Medium (DMEM) plus 10% Foetal Calf Serum (FCS);
(§5) (B) was grown in growth factor depleted medium (hereinafter referred to as GF depleted) which is NGM that is depleted of active polypeptide growth factors including TGFP. It is prepared by treating FCS with a reducing agent in order to attack and cleave the disulphide bonds that determine the conformation and thus the biological activity of the polypeptide growth factors;
(§6) (D) (D1-D4) were grown in growth factor depleted medium plus 1 ng/ml-100 ng/ml of insulin-like Growth Factor-I) (IGF-I) (hereinafter referred to as GF depleted+IGF-I); (E) (E1-E3) were grown in growth factor depleted medium plus 50 ng/ml-[…] of insulin-like Growth Factor II (IGF-II) (hereinafter referred to as GF depleted+IGFII); (F) (F1F3) were grown in growth factor depleted medium plus 25 ng/ml to 100 ng/ml of basic fibroblast growth factor (bFGF) (hereinafter referred to as GF depleted and bFGF); […]
(§7) The fibroblasts were grown in these media (which was replenished twice weekly) for fourteen days, fixed and stained immunohistochemically using an antibody specific for α-smooth muscle actin (a marker of myofibroblasts). […] The number of these was counted, as was the total number of cells present, and the proportion of myofibroblasts was then calculated. In this manner, the number of myofibroblasts present in each culture was determined as a percentage of the total number of cells in the culture population.
(§8) Fibroblast cultures were initiated from normal scars (NS) and hypertrophic scars (HTS). […] The number of myofibroblasts was calculated as a percentage of the total cell population and the results are shown in FIGS. 1 and 2 of the drawings.
(§9) Fibroblasts cultures were initiated from normal and hypertrophic scars. […] The number of myofibroblasts were counted and calculated as a percentage of the total cells present.

[2] = tested on: murine incisional wounds (myofibroblasts); experiment: Murine incisional wound healing model, α-smooth muscle actin staining score; format: in vivo, male BALB/c mice
Source text: After general anesthesia, both posterior flanks on male BALB/c mice were shaved and cleaned with chlorhexidine in spirit. Two 1.5 cm wounds were marked (one in each flank) parallel to the spine with permanent marker. Full thickness incisions were made along these marks down to the level of the chest wall. Both lateral skin flaps were dissected from the underlying chest wall and the wound assessed from hemorrhage. The wound edges were then infiltrated with test substance or vehicle only control, as appropriate, by injection into the wound edges. Insulatard® was diluted in normal saline (0.9%) to give a final test solution of 1 IU/ml. 0.15 ml of this test solution (0.15 IU) was applied to one of the test wounds and saline alone was applied to the contralateral wound on the same animal. Wounds were closed with interrupted 5/0 Prolene® suture. Mice were recovered from the anesthetic individually and housed in groups of 4. […]
The wounds were analysed in the following manner: The comparison of the actual severity of scarring is impossible in this and all other animal models, since in contrast to human wounds, animal wounds are rapidly closed by way of swift epidermal contraction leaving minimal areas of scarring in any case. We therefore attempted to judge the efficacy of insulin in vivo on its ability to affect the number of myofibroblasts present using immunohistochemical staining methods for the myofibroblast marker, α smooth muscle actin. To allow semi-quantitative analysis of the resulting staining, a visual grading system was developed. Scars were assessed and allocated a score depending on the intensity of alpha smooth muscle actin staining within each section. […] Each scar was assessed at a number (minimum of 3) points along its length and the intensity was scored and averaged for each section to allow comparisons between treatments. Two independent assessors assessed the scoring blindly. The number of wounds assessed for each experimental group was 8. […]

[3] = tested on: dermal fibroblast cell lines; experiment: Myofibroblast number in dermal fibroblast cell lines in GFD medium with PPAR agonist; format: cell-based, human; conditions: 1 IU/ml insulin alone, 14 days
Source text: Dermal fibroblast cell lines were derived from 3 patients and seeded individually onto sterile coverslips. […] Medium was refreshed twice weekly and cultures were harvested for immunohistochemical staining for α-smooth muscle actin after 14 days. The number of myofibroblasts was counted and calculated as a percentage of the total cells present, and since the ability of each cell line to differentiate into myofibroblasts varied extensively, the results were normalised as follows. Results are expressed as the mean percentage reduction in myofibroblast number for each treatment as compared to the proportion of myofibroblasts identified in GFD medium alone for that cell line. The error bars represent plus or minus one standard deviation.

[4] = tested on: fibroblast cultures from burns scars; experiment: In vitro myofibroblast differentiation assay (α-smooth muscle actin staining), burns scar fibroblasts; format: cell-based, human; conditions: 14 days
Source text: as §1, §2, §3, §4, §5
(D) (D1-D4) were grown in growth factor depleted medium plus 1 ng/ml-100 ng/ml of insulin-like Growth Factor-I) (IGF-I) (hereinafter referred to as GF depleted+IGF-I); (E) (E1-E3) were grown in growth factor depleted medium plus 50 ng/ml-[…] of insulin-like Growth Factor II (IGF-II) (hereinafter referred to as GF depleted+IGFII); (F) (F1F3) were grown in growth factor depleted medium plus 25 ng/ml to 100 ng/ml of basic fibroblast growth factor (bFGF) (hereinafter referred to as GF depleted and bFGF);
(G) (G1-G3) were grown in growth factor depleted medium plus 25 ng/ml to 100 ng/ml of platelet derived growth factor (PDGF) (hereinafter referred to as GF depleted+PDGF).
The fibroblasts were grown in these media (which was replenished twice weekly) for fourteen days, fixed and stained immunohistochemically using an antibody specific for α-smooth muscle actin (a marker of myofibroblasts). The stain caused α-smooth muscle actin to fluoresce green and accordingly cells that had stained green were identified as myofibroblasts. The number of these was counted, as was the total number of cells present, and the proportion of myofibroblasts was then calculated. In this manner, the number of myofibroblasts present in each culture was determined as a percentage of the total number of cells in the culture population.

[5] = tested on: fibroblast cultures from normal skin; experiment: In vitro myofibroblast differentiation assay (α-smooth muscle actin staining), normal skin fibroblasts; format: cell-based, human; conditions: GF depleted medium + 5 μg/ml, 14 days
Source text: as §1, §2
Each culture was split into seven parts (A to G) and grown in the following different growth media: […]
as §7

murine incisional scars = conditions: 1 dose of insulin (Day 0), harvested after 14 days, n=4
Experimental: Scars were wrapped in saline soaked swabs and transported immediately to the laboratory for testing. Each scar was dissected into 2 equal strips (perpendicular to the line of the scar), each of which was measured using a Nikon Shadowmeter. The strip of tissue was mounted on the tensiometer, with the scar mounted at 6 mm from the jaws of the clamps. Traction was applied across the scar at a constant rate of 10 mm/minute, and the force required for disruption of the scar measured. Stress values were calculated by normalising load values to cross-sectional area of each specimen and are given in units of MPa.

[6] = tested on: fibroblast cultures from normal scars; experiment: In vitro myofibroblast differentiation assay (α-smooth muscle actin staining), normal scar fibroblasts; format: cell-based, human
Source text: as §1, §2, §3, §4, §5, §6, §7, §8, §9

Insulin: polypeptide hormone; in vivo and Example 9 tests used Insulatard diluted in saline
Number of myofibroblasts - percentage of total cell population ([1]; HTS fibroblasts, GF depleted medium + 5 μg/ml, 14 days): 3.23 percentage of total cell popul
Effect on induction of myofibroblast differentiation by active TGFβ1 ([1]; hypertrophic scar fibroblasts, NGM plus 5 μg/ml insulin plus 0.5 ng/ml TGFβ1, 5 days): no effect on the rapid induction of myofibroblast differentiation
Mean score of α-smooth muscle actin staining (out of maximum of 3) ([2]; 0.15 IU Insulatard injected into wound edges, day 14, 8 wounds): 0.486
Myofibroblast score ([2]; single dose 0.15 IU on day 0, day 14 after wounding (FIG. 4)): dropping down to normal
Maximum myofibroblast score ([2]; single dose 0.15 IU on day 0, maximum reached over first 7 days (FIG. 4)): 1.92
Mean percentage reduction in myofibroblast number compared to GFD medium alone [3]: 76.6%
Number of myofibroblasts - percentage of total cell population ([4]; GF depleted medium + 10 ng/ml): 16.44 percentage of total cell popul
Number of myofibroblasts - percentage of total cell population ([4]; GF depleted medium + 100 ng/ml): 15.91 percentage of total cell popul
Number of myofibroblasts - percentage of total cell population ([4]; GF depleted medium + 5 μg/ml): 8.20 percentage of total cell popul
Number of myofibroblasts - percentage of total cell population [5]: 5.26 percentage of total cell popul
Median wound breaking strength (murine incisional scars): 1.62 MPa
Number of myofibroblasts - percentage of total cell population ([6]; GF depleted medium + 5 μg/ml, 14 days): 6.14 percentage of total cell popul
Effect on induction of myofibroblast differentiation by active TGFβ1 ([6]; NGM plus 5 μg/ml insulin plus 0.5 ng/ml TGFβ1, 5 days): no effect on the rapid induction of myofibroblast differentiation
